Data as given in patent publication US12655116B2, “Substituted isophthalic acid diamides” (Bayer Aktiengesellschaft, priority 2020, dated 2026).

Legend:
MATIN [1] = assay: Post-emergence herbicidal action against MATIN; format: in vivo, Matricaria inodora; settings: Tripleurospermum inodorum, 504 h, dosage 20 g/ha
Summary of the method: (§1)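 A WP or EC formulation diluted in water with 0.2% wetting agent was sprayed at 600 to 800 l/ha onto one-leaf-stage plants grown in sandy loam. About 3 weeks later, action was rated visually in percent, 100% being dead plants.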

ALOMY [2] = assay: Post-emergence herbicidal action against ALOMY; format: in vivo, Alopecurus myosuroides; settings: Alopecurus myosuroides, 504 h, dosage 20 g/ha, visual assessment about 3 weeks after treatment vs untreated controls
Summary of the method: as §1

DIGSA [3] = assay: Post-emergence herbicidal action against DIGSA; format: in vivo, Digitaria sanguinalis; settings: Digitaria sanguinalis, 504 h
Summary of the method: as §1

AVEFA [4] = assay: Post-emergence herbicidal action against AVEFA; format: in vivo, Avena fatua; settings: Avena fatua, 504 h, 20 g/ha, visual assessment about 3 weeks after treatment, 100% = plants have died, 0% = like control plants
Summary of the method: as §1

ABUTH [5] = assay: Post-emergence herbicidal action against ABUTH; format: in vivo, Abutilon theophrasti; settings: Abutilon theophrasti, 504 h, visual assessment about 3 weeks after treatment vs untreated controls
Summary of the method: as §1

STEME [6] = assay: Post-emergence herbicidal action against STEME; format: in vivo, Stellaria media; settings: Stellaria media, 504 h
Summary of the method: as §1

HORMU = assay: Pre-emergence herbicidal action against HORMU; format: in vivo, Hordeum murinum; settings: Hordeum murinum, 504 h; 80 g/ha, pre-emergence
Text: Seeds of monocotyledonous and dicotyledonous weed plants and crop plants are laid out in sandy loam soil in wood-fiber pots and covered with soil. The compounds of the invention, formulated in the form of wettable powders (WP) or as emulsion concentrates (EC), are then applied to the surface of the covering soil in the form of an aqueous suspension or emulsion at a water application rate equivalent to 600 to 800 l/ha, with addition of 0.2% wetting agent. After the treatment, the pots are placed in a greenhouse and kept under good growth conditions for the trial plants. The damage to the test plants is scored visually after a test period of 3 weeks by comparison with untreated controls (herbicidal activity in percent (%): 100% activity=the plants have died, 0% activity=like control plants). […] The tables below illustrate, in an illustrative manner, the post-emergence herbicidal action of the compounds of the invention, the herbicidal activity being stated in percent.

AMARE [7] = assay: Post-emergence herbicidal action against AMARE; format: in vivo, Amaranthus retroflexus; settings: Amaranthus retroflexus, 504 h, 20 g/ha, visual assessment about 3 weeks after treatment, 100% = plants have died, 0% = like control plants
Summary of the method: as §1

ALOMY [8] = assay: Pre-emergence herbicidal action against ALOMY; format: in vivo, Alopecurus myosuroides; settings: Alopecurus myosuroides, 504 h, pre-emergence
Summary of the method: (§2)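 Greenhouse pots of sandy loam held seeds covered with soil, onto which the compound was applied before emergence. An aqueous suspension or emulsion of WP or EC was used at 600 to 800 l/ha with 0.2% wetting agent. Percent damage was judged visually at 3 weeks.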

SETVI [9] = assay: Pre-emergence herbicidal action against SETVI; format: in vivo, Setaria viridis; settings: Setaria viridis, 504 h
Summary of the method: as §2

ECHCG [10] = assay: Post-emergence herbicidal action against ECHCG; format: in vivo, Echinochloa crus-galli; settings: Echinochloa crus-galli, 504 h
Summary of the method: as §1

PHBPU = assay: Post-emergence herbicidal action against PHBPU; format: in vivo, Pharbitis purpurea; settings: Ipomoea purpurea, 504 h
Summary of the method: as §1

LOLRI = assay: Pre-emergence herbicidal action against LOLRI; format: in vivo, Lolium rigidum; settings: Lolium rigidum, 504 h, 80 g/ha
Summary of the method: as §2

VERPE = assay: Pre-emergence herbicidal action against VERPE; format: in vivo, Veronica persica; settings: Veronica persica, 504 h, dosage 80 g/ha
Summary of the method: as §2

ABUTH [11] = assay: Pre-emergence herbicidal action against ABUTH; format: in vivo, Abutilon theophrasti; settings: Abutilon theophrasti, 504 h
Summary of the method: as §2

SETVI [12] = assay: Post-emergence herbicidal action against SETVI; format: in vivo, Setaria viridis; settings: Setaria viridis, 504 h, dosage 20 g/ha
Summary of the method: as §1

ECHCG [13] = assay: Pre-emergence herbicidal action against ECHCG; format: in vivo, Echinochloa crus-galli; settings: Echinochloa crus-galli, 504 h
Summary of the method: as §2

AVEFA [14] = assay: Pre-emergence herbicidal action against AVEFA; format: in vivo, Avena fatua; settings: Avena fatua, 504 h, pre-emergence
Summary of the method: as §2

VIOTR [15] = assay: Post-emergence herbicidal action against VIOTR; format: in vivo, Viola tricolor; settings: Viola tricolor, 504 h
Summary of the method: as §1

STEME [16] = assay: Pre-emergence herbicidal action against STEME; format: in vivo, Stellaria media; settings: Stellaria media, 504 h
Summary of the method: as §2

VIOTR [17] = assay: Pre-emergence herbicidal action against VIOTR; format: in vivo, Viola tricolor; settings: Viola tricolor, 504 h
Summary of the method: as §2

DIGSA [18] = assay: Pre-emergence herbicidal action against DIGSA; format: in vivo, Digitaria sanguinalis; settings: Digitaria sanguinalis, 504 h
Summary of the method: as §2

MATIN [19] = assay: Pre-emergence herbicidal action against MATIN; format: in vivo, Matricaria inodora; settings: Tripleurospermum inodorum, 504 h
Summary of the method: as §2

AMARE [20] = assay: Pre-emergence herbicidal action against AMARE; format: in vivo, Amaranthus retroflexus; settings: Amaranthus retroflexus, 504 h, scored visually after 3 weeks vs untreated controls, 100% = plants have died, 0% = like control plants
Summary of the method: as §2

[21] = 80 g/ha, scored visually after 3 weeks vs untreated controls (100% = plants have died, 0% = like control plants)
[22] = 20 g/ha, scored visually after 3 weeks, 100% = plants have died, 0% = like control plants

Question: What does the source list for `CCNC(=O)c1c(C(F)(F)F)ccc(C(=O)Nc2nnnn2C)c1Cl` [Example 1-130]?
Answer: pest or weed control at 20 g/ha (MATIN [1]): 80%; pest or weed control at 20 g/ha (ALOMY [2]): 80%; pest or weed control at 5 g/ha (DIGSA [3]; 5 g/ha): 90%; pest or weed control at 20 g/ha (DIGSA [3]; 20 g/ha): 90%; pest or weed control at 20 g/ha (AVEFA [4]): 80%; pest or weed control at 5 g/ha (ABUTH [5]; dosage 5 g/ha): 90%; pest or weed control at 20 g/ha (ABUTH [5]; dosage 20 g/ha): 90%; pest or weed control at 20 g/ha (STEME [6]; 20 g/ha): 80%; pest or weed control at 5 g/ha (STEME [6]; dosage 5 g/ha): 80%; pest or weed control at 80 g/ha (HORMU): 90%; pest or weed control at 20 g/ha (AMARE [7]): 90%; pest or weed control at 80 g/ha (ALOMY [8]; [21]): 100%; pest or weed control at 20 g/ha (ALOMY [8]; [22]): 100%; pest or weed control at 20 g/ha (SETVI [9]; dosage 20 g/ha): 90%; pest or weed control at 80 g/ha (SETVI [9]; dosage 80 g/ha): 100%; pest or weed control at 5 g/ha (ECHCG [10]; dosage 5 g/ha): 80%; pest or weed control at 20 g/ha (ECHCG [10]; dosage 20 g/ha): 80%; pest or weed control at 5 g/ha (PHBPU; dosage 5 g/ha): 80%; pest or weed control at 20 g/ha (PHBPU; dosage 20 g/ha): 90%; pest or weed control at 80 g/ha (LOLRI): 100%; pest or weed control at 80 g/ha (VERPE): 80%; pest or weed control at 80 g/ha (ABUTH [11]; [21]): 100%; pest or weed control at 20 g/ha (ABUTH [11]; dosage 20 g/ha, scored visually after 3 weeks vs untreated controls, 100% = plants have died, 0% = like control plants, read-out: Pre-emergence action against ABUTH (herbicidal activity in percent)): 100%; pest or weed control at 20 g/ha (SETVI [12]): 80%; pest or weed control at 20 g/ha (ECHCG [13]; 20 g/ha): 90%; pest or weed control at 80 g/ha (ECHCG [13]; 80 g/ha): 100%; pest or weed control at 80 g/ha (AVEFA [14]; 80 g/ha): 100%; pest or weed control at 20 g/ha (AVEFA [14]; [22]): 100%; pest or weed control at 5 g/ha (VIOTR [15]; 5 g/ha): 90%; pest or weed control at 20 g/ha (VIOTR [15]; 20 g/ha): 90%; pest or weed control at 20 g/ha (STEME [16]; dosage 20 g/ha): 100%; pest or weed control at 80 g/ha (STEME [16]; dosage 80 g/ha): 100%; pest or weed control at 20 g/ha (VIOTR [17]; dosage 20 g/ha): 100%; pest or weed control at 80 g/ha (VIOTR [17]; dosage 80 g/ha): 100%; pest or weed control at 20 g/ha (DIGSA [18]; dosage 20 g/ha): 100%; pest or weed control at 80 g/ha (DIGSA [18]; dosage 80 g/ha): 100%; pest or weed control at 20 g/ha (MATIN [19]; dosage 20 g/ha): 100%; pest or weed control at 80 g/ha (MATIN [19]; dosage 80 g/ha): 100%; pest or weed control at 20 g/ha (AMARE [20]; 20 g/ha): 100%; pest or weed control at 80 g/ha (AMARE [20]; 80 g/ha): 100%
